Test results: ChEMBL document CHEMBL3507680, “University of Dundee, Gates Library screen for HepG2 cell viability”

Experiment: Human HepG2 cell viability assay in 384 well format
Assay type: toxicity, cell-based
Design: dose 125 nL, time 70.5 hour; concentration not given beside the values
Conditions: HepG2 cells, read-out: Inhibition

Row | SMILES | cytotoxicity at 70.5 h
1 | CCOc1ccc(N(C)S(=O)(=O)c2c[nH]c(C(C)C)n2)cc1 | -4.89%
2 | O=C1NCCCCC1NS(=O)(=O)N1CCCCCC1 (configuration not stated) | -13.8%
3 | CC(=O)N1CCC2(C1)CN(C(=O)C1CCOC1)C2 (configuration not stated) | -11.2%
4 | CC(C)COCCCNC(=O)NC(C)c1ccc(-n2cncn2)cc1 (configuration not stated) | -3.59%
5 | Cc1cnn(CC(C)NCc2csc(-c3cccs3)n2)c1 (configuration not stated) | -22.3%
6 | CC(C)C(C(=O)N1CCCN(Cc2cscn2)CC1)n1cncn1 (configuration not stated) | -4.6%
7 | Cc1cnc(C(=O)NCC(c2ccc(C)o2)N2CCOCC2)cn1 (configuration not stated) | 10.4%
8 | CCCNC(=O)c1cccc(CNCc2csc(C(C)C)n2)c1 | -78.5%
9 | O=C(c1ccccn1)N1CCc2c(nc(N3CCCC3)[nH]c2=O)C1 | -1.38%
10 | c1ccc(CN2C[C@@H]3COC[C@]3(COCc3ccncc3)C2)nc1 | -2.45%
11 | CCS(=O)(=O)N1C[C@@H](O)[C@H](N(C)Cc2ccc(F)cc2)C1 | 0.693%
12 | NC(=O)c1c(-c2ccc(Cl)cc2Cl)csc1NC(=O)CCCC(=O)O | 4.32%
13 | CCn1c(N)nc2cc(C(=O)NCCCc3ccccn3)cnc21 | -15%
14 | COc1ccc(-c2nnc(C(C)N3CCOC(C)(C)C3)o2)cc1 (configuration not stated) | -5.79%
15 | CCn1c(C)nnc1SCCNC(=O)c1sc(C(C)C)nc1C | -7.2%
16 | c1cncc(OC[C@@]23CCO[C@@H]2CCN(Cc2cccs2)C3)c1 | -100%
17 | CN(C)c1cc(CNCc2cccc3c2OCCO3)ccn1 | -4.63%
18 | O=C(CCNC(=O)c1ccc(Cl)cc1)NCc1nc(C2CC2)no1 | 19.3%
19 | CC(C)CN1C(=O)C2(CCN(Cc3ccsc3)C2)c2ccccc21 (configuration not stated) | -13%

Row | SMILES | cytotoxicity at 70.5 h
20 | O=C1N(Cc2ccccn2)C[C@H]2CN(C3CCOCC3)CCN12 | -3.19%
21 | COc1cc(NC(=O)NCC2CCCO2)cc(OC)c1OC (configuration not stated) | -5.38%
22 | Cc1cc(C)c(CNC(=O)NC2COc3ccccc3C2)c(=O)[nH]1 (configuration not stated) | -8.39%
23 | Cc1ccccc1C1(O)CCN(C(=O)CCc2cn3ccccc3n2)C1 (configuration not stated) | 17.9%
24 | N#Cc1cccc(S(=O)(=O)NC2CCN(CC(F)(F)F)C2)c1 (configuration not stated) | -15.4%
25 | OC1COCCN(Cc2cccc(N3CCOCC3)c2)C1 (configuration not stated) | -5.01%
26 | CN(C)C(=O)NCc1ncn2c1CN(Cc1ccco1)CCC2 | -6.46%
27 | CC(=O)Nc1nc(C(=O)N2CCCC(n3ccnc3C)C2)cs1 (configuration not stated) | -14.1%
28 | CN(Cc1ccc(N(C)C)cc1)C(=O)NCc1nnc2n1CCC2 | -5.5%
29 | CC(NC(N)=O)C(=O)NCc1cc(Br)ccc1F (configuration not stated) | -7.15%
30 | CCN(c1ccc(C(=O)NCCN2CCOCC2)cc1)S(=O)(=O)CC | -25.1%
31 | O=C(O)c1ccccc1-c1c(-c2ccccc2)ncn1C[C@H]1CCCN1 | -3.04%
32 | COCCCNC(=O)NCc1ccc(N2CCOC(C)C2)nc1 (configuration not stated) | 17.1%
33 | Cc1cc(C)cc(N(C)S(=O)(=O)c2cc(C(=O)O)cs2)c1 | -6.25%
34 | CCOc1ccc(-c2ccnc(C)n2)cc1C(=O)O | -4.51%
35 | Cc1nn(C)c(Oc2cccc(F)c2)c1NC(=O)C1CCCO1 (configuration not stated) | -6.09%
36 | Cc1c(CNC(=O)Nc2cccc3c2CCN3C)cnn1C | -3.95%
37 | CC(C)n1ccnc1CN1CCCN(C(=O)c2ncccc2O)CC1 | 0.148%
38 | CC(Cn1cncn1)NCc1csc2c1CCCC2 (configuration not stated) | -0.547%

Row | SMILES | cytotoxicity at 70.5 h
39 | CC(C)Cc1nnc(NCc2ccsc2)o1 | -5.09%
40 | O=C(O)c1cc(/C=C/c2ccc3ccccc3c2)ncn1 | -7.92%
41 | CS(=O)(=O)N1CCC(c2nnc3ccc(C(=O)N4CCCC4)cn23)C1 (configuration not stated) | -5.09%
42 | CCOCCNC(=O)C1CCC(=O)N(CCc2ccc(Cl)cc2)C1 (configuration not stated) | -3.36%
43 | CCOc1ccccc1C(=O)N1CC(=O)N(C2CCC2)CC(O)C1 (configuration not stated) | -4.81%
44 | CC1CN(C)CCN1C(=O)Nc1nc(-c2ccc[nH]2)cs1 (configuration not stated) | -14.7%
45 | Cc1cc(N)nc(SC2CCN(c3ccccc3F)C2=O)n1 (configuration not stated) | 19%
46 | CN(C)CCOCc1nnc2n1CCN(Cc1ccc(F)cc1)CC2 | 23.8%
47 | CCOCC(=O)NS(=O)(=O)c1ccc(F)cc1C(F)(F)F | -4.87%
48 | COCCN1CCCC2(CCN(C(=O)c3cnc(O)cn3)C2)C1=O (configuration not stated) | -6.54%
49 | COc1ccc(CC2(C(=O)O)CCN(c3nc(C)ncc3C)CC2)cc1 | -10.8%
50 | COc1cc(NC2CCCNC2)cc(OC)c1 (configuration not stated) | 17.7%
51 | CC(C)N1CCC(N2CCCC(C(=O)NCC3(O)CCCCC3)C2)CC1 (configuration not stated) | -3.9%
52 | CCCN1CCCN(C(=O)Nc2ccc3c(c2)OCO3)CC1 | -7.91%
53 | N#CC1(C(=O)N2C[C@H]3CC[C@@H]2CN(Cc2ccncc2)C3)CCOCC1 | -23.5%
54 | COc1cccc2c1OCC(CNc1ccc(C)nn1)C2 (configuration not stated) | -3.11%
55 | Cn1cccc1C(=O)NS(=O)(=O)c1cnn(-c2ccccc2F)c1 | 11.6%
56 | CCCn1ncc(C(=O)N(Cc2cccnc2)C[C@@H]2CCC(=O)N2)c1C | -5.8%
57 | O=C(C1CCOC1)N1C[C@H]2CN(Cc3nccs3)C[C@H]2C1 (some centres not stated) | -2.75%
